Reference: patent US7838527B2, “Methods of treating cancer and related methods” (Novartis Vaccines and Diagnostics, Inc., priority 2002, dated 2010)
Like-named read-outs stand apart in the source and are kept apart here.

What was measured:
[1] = Plasma pharmacokinetics in KM12L4a tumor-bearing mice; assay type: in vivo; details: 300 mg/kg/day p.o.; Day 18; from 3 concentration-time pairs
[2] = Compound 1 and metabolite levels in pooled rat plasma, 2 week toxicology study; assay type: in vivo; details: metabolites estimated by UV; for concentration at 0 h / concentration at 24 h: rat, plasma, po, read-out: Level in Rat Plasma
[3] = Metabolite profile in monkey plasma, multiple oral dose study; assay type: in vivo; details: for level in plasma: compound 1 5 mg/kg BID oral (10 mg/kg/day), Day 1, metabolite estimated by UV
[4] = 30 mg/kg, compound 1 30 mg/kg PO once a day, Day 1
[5] = 100 mg/kg, compound 1 100 mg/kg PO once a day, Day 1
[6] = 100 mg/kg, compound 1 100 mg/kg PO once a day, Day 14

AUC [1] [µg·h/mL] | detection of metabolite in plasma ([3]; monkey, compound 1 5 mg/kg BID oral, day 1 and 14 samples) | level in plasma ([3]; pooled 0 hr) [µg/mL] | level in plasma ([3]; pooled 1, 2 hr) [µg/mL] | level in plasma ([3]; pooled 4, 8 hr) [µg/mL] | level in plasma ([3]; pooled 12, 13, 14, 16, 20, 24 hr) [µg/mL] | Structure (SMILES) | % TGI vs. vehicle (PC3 human prostate tumor; 100 mpk q 2 days) [%] | % TGI vs. vehicle (PC3 human prostate tumor; 100 mpk q 3 days) [%] | % TGI vs. vehicle (PC3 human prostate tumor; 100 mpk q 4 days) [%] | concentration at 0 h [2, 4] [µg/mL] | concentration at 0 h [2, 5] [µg/mL] | concentration at 24 h [2, 5] [µg/mL] | concentration at 0 h [2, 6] [µg/mL] | concentration at 24 h [2, 6] [µg/mL] | Level in Rat Plasma ([2]; compound 1 30 mg/kg PO once a day, Day 1, 1-2 hr) [µg/mL] | Level in Rat Plasma ([2]; compound 1 30 mg/kg PO once a day, Day 1, 4-8 hr) [µg/mL] | Level in Rat Plasma ([2]; compound 1 100 mg/kg PO once a day, Day 14, 1-2 hr) [µg/mL] | Level in Rat Plasma ([2]; compound 1 100 mg/kg PO once a day, Day 14, 4-8 hr) [µg/mL]
58.4 | – | – | – | – | – | CN1CCN(c2ccc3nc(-c4c(N)c5c(F)cccc5[nH]c4=O)[nH]c3c2)CC1 [Compound 1] | 75 | 68 | 66 | – | – | – | – | – | – | – | – | –
– | not detected | – | – | – | – | C[N+]1([O-])CCN(c2ccc3nc(-c4c(N)c5c(F)cccc5[nH]c4=O)[nH]c3c2)CC1 [Compound 2, 4-amino-5-fluoro-3-[6-(4-methyl-4-oxidopiperazin-1-yl)-1H-benzimidazol-2-yl]quinolin-2(1H)-one] | – | – | – | 0 | 0 | 0.137 | 0.067 | 0.102 | – | – | – | –
– | – | 0 | 0.0085 | 0.031 | 0.01 | Nc1c(-c2nc3ccc(N4CCNCC4)cc3[nH]2)c(=O)[nH]c2cccc(F)c12 [Compound 3, 4-amino-5-fluoro-3-[6-(piperazin-1-yl)-1H-benzimidazol-2-yl]quinolin-2(1H)-one] | – | – | – | 0 | 0 | 0.083 | 0.015 | 0.01 | 0.014 | 0.048 | 0.017 | 0.019
